“And” between values parts separate entries of the source, which are not always exact repeats. Identical values can stand only once. Like-named read-outs stand apart in the source and are kept apart here.
Key:
[1] = aqueous solution, cited from earlier work
[2] = aqueous solution
[3] = cited from earlier work

decitabine remaining in active form ([2]; storage at 4° C. for 6 days): less than 50%
decitabine remaining in active form ([2]; storage at 25° C. for 1 day): less than 50%
SMILES: Nc1ncn([C@H]2C[C@H](O)[C@@H](CO)O2)c(=O)n1 [decitabine, 5-aza-2′-deoxycytidine]
decrease of concentration of decitabine ([1]; after 4 hours at 25° C.): about 10%
decrease of concentration of decitabine ([1]; after 24 hours at 4° C.): about 10%
decitabine concentration in patients ([3]; 100 mg/m^2 as a 3-hour infusion): about 0.4 μg/ml and ~2 μM
total urinary excretion, % of the administered dose ([3]; humans): less than 1%
volume of distribution ([3]; humans): about 4.6 L/kg

Reference: patent US7135464B2, “Method of administering decitabine” (SuperGen, Inc., priority 2002, dated 2006)
